Results from patent US11089783B2, “2-(het)aryl-substituted fused heterocycle derivatives as pesticides” (Bayer Aktiengesellschaft, priority 2017, dated 2021).

Experiments:
Assay type in all cases: in vivo
Ctenocephalides felis = Ctenocephalides felis oral test; details: 100 ppm, after 2 days
Experimental: Solvent: dimethyl sulfoxide To produce a suitable active ingredient formulation, 10 mg of active ingredient are mixed with 0.5 ml of dimethyl sulfoxide. Dilution with citrated cattle blood gives the desired concentration. About 20 unfed adult cat fleas (Ctenocephalides felis) are placed into a chamber which is closed at the top and bottom with gauze. A metal cylinder whose bottom end is closed with parafilm is placed onto the chamber. The cylinder contains the blood/active ingredient formulation, which can be imbibed by the fleas through the parafilm membrane. After 2 days, the kill in % is determined. 100% means that all of the fleas have been killed; 0% means that none of the fleas have been killed.

Phaedon cochleariae = Phaedon cochleariae spray test (PHAECO), Chinese cabbage leaf discs; details: Phaedon cochleariae, foliar, 168 h; for pest or weed control at 100 g/ha: 7 days (7 dat), read-out: efficacy
Method in brief: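 Chinese cabbage (Brassica pekinensis) leaf discs sprayed with compound in water with 1000 ppm emulsifier, then after drying infested with Phaedon cochleariae larvae. Efficacy (% larvae killed) scored after 7 days or the chosen interval.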

Meloidogyne incognita = Meloidogyne incognita test (MELGIN); details: Meloidogyne incognita, 336 h, 14 days (14 dat), read-out: efficacy (nematicidal, gall formation)
Method in brief: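 Sand with lettuce seeds, M. incognita egg/larvae suspension and aqueous dilution of compound concentrate. Nematicidal efficacy scored from gall (root-knot) formation after 14 days or the desired time, as % relative to untreated control (100% = no galls; 0% = as control).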

Myzus persicae = Myzus persicae spray test (MYZUPE), Chinese cabbage leaf discs; details: Myzus persicae, foliar, 120 h; for Emax at 4 g/ha: MYZUPE, 5 dat, read-out: % efficacy
Method in brief: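 Leaf discs of Chinese cabbage carrying all stages of green peach aphid were sprayed with compound formulated in solvent and diluted with water containing emulsifier at 1000 ppm. Percent efficacy (100% = all aphids dead) was scored after 5 days or after the desired time.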

Tetranychus urticae = Tetranychus urticae spray test, OP-resistant (TETRUR)
Method in brief: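 Bean leaf discs infested with all stages of OP-resistant Tetranychus urticae were sprayed with compound formulated in solvent and water containing 1000 ppm emulsifier. Efficacy was scored after 6 days as % mites killed (100% = all killed).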

Lucilia cuprina = Lucilia cuprina test; details: 48 h, L1 larvae, after 2 days, read-out: efficacy (kill)
Method in brief: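 About 20 L1 larvae of Lucilia cuprina placed on minced horsemeat containing compound (DMSO stock diluted in water to test concentration). Kill (%) scored after 2 days; 100% = all larvae dead, 0% = none dead.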

[1] = 5 days (5 dat), read-out: efficacy
[2] = Tetranychus urticae, 144 h, TETRUR, 6 dat, read-out: % efficacy

SMILES	efficacy (kill) (Ctenocephalides felis)	pest or weed control at 100 g/ha (Phaedon cochleariae)	pest or weed control at 20 ppm (Meloidogyne incognita)	pest or weed control at 20 g/ha (Myzus persicae; [1])	pest or weed control at 100 g/ha (Myzus persicae; 100 g/ha, 5 days (5 dat), read-out: efficacy)	efficacy (Tetranychus urticae; 4 g/ha, after 6 days)	Emax at 20 g/ha (Tetranychus urticae; Tetranychus urticae, 144 h, TETRUR, 20 g/ha, 6 dat, read-out: % efficacy)	Emax at 100 g/ha (Tetranychus urticae; [2])	pest or weed control at 100 ppm (Lucilia cuprina)	Emax at 4 g/ha (Phaedon cochleariae; PHAECO, 4 g/ha, 7 dat, read-out: % efficacy)	percent efficacy (larval mortality) at a fixed application rate at 20 g/ha (Phaedon cochleariae; PHAECO, 7 dat)	Emax at 4 g/ha (Myzus persicae)	percent efficacy (larval mortality) at a fixed application rate at 4 g/ha (Phaedon cochleariae; PHAECO, 4 g/ha, 7 dat)
CCS(=O)(=O)c1ccc(NC(=O)NC)nc1-c1nc2cc(C(F)(F)C(F)(F)F)nnc2n1C [Example I-08, 1-{5-(ethylsulfonyl)-6-[7-methyl-3-(pentafluoroethyl)-7H-imidazo[4,5-c]pyridazin-6-yl]pyridin-2-yl}-3-methylurea]	100%	100%	100%	100%	90%	90%	70%	70%	100%				
CCS(=O)(=O)c1ccc(N(C)C(=O)NC)nc1-c1nc2cc(C(F)(F)C(F)(F)F)nnc2n1C [Example I-09]	100%	100%	100%	100%				70%	100%	83%	100%	70%	
CCS(=O)(=O)c1ccc(NC(=O)N(C)C)nc1-c1nc2cc(C(F)(F)C(F)(F)F)nnc2n1C [Example I-10]	100%	100%	100%	100%				70%	100%			70%	
CCNC(=O)Nc1ccc(S(=O)(=O)CC)c(-c2nc3cc(C(F)(F)C(F)(F)F)nnc3n2C)n1 [Example I-13]	100%	100%	100%	90%					100%		100%		100%
